Key:
LC4-1 = test: cells; assay type: functional, cell-based, Homo sapiens; conditions: Homo sapiens, LC4-1;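 also: growth inhibition of LC4-1 cells, read out with a cell viability assay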
Description: SANGER: Inhibition of human LC4-1 cell growth in a cell viability assay.

MHH-CALL-2 = test: cells; assay type: functional, cell-based, Homo sapiens; conditions: Homo sapiens, MHH-CALL-2;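 also: growth inhibition of the cell line, read out in a cell viability assay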
Description: SANGER: Inhibition of human MHH-CALL-2 cell growth in a cell viability assay.

NB1 = test: cells; assay type: functional, cell-based, Homo sapiens; conditions: Homo sapiens, NB1
Description: SANGER: Inhibition of human NB1 cell growth in a cell viability assay.

LC-1F = test: cells; assay type: functional, cell-based, Homo sapiens; conditions: Homo sapiens, LC-1F;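 also: growth inhibition of human LC-1F cells, read out with a cell viability assay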
Description: SANGER: Inhibition of human LC-1F cell growth in a cell viability assay.

HCC1599 = test: cells; assay type: functional, cell-based, Homo sapiens; conditions: Homo sapiens, HCC1599;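 also: growth inhibition of HCC1599 cells, read out in a cell viability assay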
Description: SANGER: Inhibition of human HCC1599 cell growth in a cell viability assay.

ECC4 = test: cells; assay type: functional, cell-based, Homo sapiens; conditions: Homo sapiens, ECC4;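 also: growth inhibition of ECC4 cells, read out with a cell viability assay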
Description: SANGER: Inhibition of human ECC4 cell growth in a cell viability assay.

EC-GI-10 = test: cells; assay type: functional, cell-based, Homo sapiens; conditions: Homo sapiens, EC-GI-10
Description: SANGER: Inhibition of human EC-GI-10 cell growth in a cell viability assay.

KMS-12-PE = test: cells; assay type: functional, cell-based, Homo sapiens; conditions: Homo sapiens, KMS-12-PE;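 also: growth inhibition of human KMS-12-PE cells, measured with a cell viability assay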
Description: SANGER: Inhibition of human KMS-12-PE cell growth in a cell viability assay.

MDA-MB-134-VI = test: cells; assay type: functional, cell-based, Homo sapiens; conditions: Homo sapiens, MDA-MB-134-VI
Description: SANGER: Inhibition of human MDA-MB-134-VI cell growth in a cell viability assay.

EVSA-T = test: cells; assay type: functional, cell-based, Homo sapiens; conditions: Homo sapiens, EVSA-T;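 also: growth inhibition of EVSA-T cells, read out with a cell viability assay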
Description: SANGER: Inhibition of human EVSA-T cell growth in a cell viability assay.

CP66-MEL = test: cells; assay type: functional, cell-based; conditions: Homo sapiens;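 also: growth inhibition of CP66-MEL cells determined in a cell viability assay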
Description: SANGER: Inhibition of human CP66-MEL cell growth in a cell viability assay.

CESS = test: SANGER: Inhibition of human CESS cell growth in a cell viability assay.; assay type: functional, cell-based; conditions: Homo sapiens, CESS
COR-L279 = test: SANGER: Inhibition of human COR-L279 cell growth in a cell viability assay.; assay type: functional, cell-based; conditions: Homo sapiens, COR-L279
RPMI 8402 = test: SANGER: Inhibition of human RPMI-8402 cell growth in a cell viability assay.; assay type: functional, cell-based; conditions: Homo sapiens, RPMI 8402
YT = test: cells; assay type: functional, cell-based, Homo sapiens; conditions: Homo sapiens, YT
Description: SANGER: Inhibition of human YT cell growth in a cell viability assay.

NB12 = test: cells; assay type: functional, cell-based; conditions: Homo sapiens;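 also: growth inhibition of human NB12 cells, read out by a cell viability assay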
Description: SANGER: Inhibition of human NB12 cell growth in a cell viability assay.

| SMILES | IC50 (LC4-1) [nM] | IC50 (MHH-CALL-2) [nM] | IC50 (NB1) [nM] | IC50 (LC-1F) [nM] | IC50 (HCC1599) [nM] | IC50 (ECC4) [nM] | IC50 (EC-GI-10) [nM] | IC50 (KMS-12-PE) [nM] | IC50 (MDA-MB-134-VI) [nM] | IC50 (EVSA-T) [nM] | IC50 (CP66-MEL) [nM] | IC50 (CESS) [nM] | IC50 (COR-L279) [nM] | IC50 (RPMI 8402) [nM] | IC50 (YT) [nM] | IC50 (NB12) [nM] |
| --- | --- | --- | --- | --- | --- | --- | --- | --- | --- | --- | --- | --- | --- | --- | --- | --- |
| COc1cc(N2CCC(N3CCN(C)CC3)CC2)ccc1Nc1ncc(Cl)c(Nc2ccccc2S(=O)(=O)C(C)C)n1 [TAE-684] | > 2000 | 29.5 | < 7.81 | > 2000 | > 2000 | > 2000 | > 2000 | > 2000 | > 2000 | > 2000 | > 2000 | > 2000 | > 2000 | > 2000 | > 2000 |  |
| NC(=O)c1cccc(-c2cc(Nc3ccc(OC(F)(F)F)cc3)ncn2)c1 | > 1280 | > 1280 | > 1280 | > 1280 | > 1280 | > 1280 | > 1280 | > 1280 | > 1280 | > 1280 | > 1280 | > 1280 | > 1280 | > 1280 | > 1280 |  |
| Cc1cc(N2CCOCC2)cc2[nH]c(-c3c(NC[C@@H](O)c4cccc(Cl)c4)cc[nH]c3=O)nc12 | > 5120 | > 5120 | > 5120 | > 5120 | > 5120 | > 5120 | > 5120 | > 5120 | > 5120 | > 5120 | > 5120 | > 5120 | > 5120 | > 5120 | > 5120 |  |
| Nc1ccccc1NC(=O)c1ccc(CNC(=O)OCc2cccnc2)cc1 [ENTINOSTAT] | 840 | 1250 | 1280 | 1120 | 516 | 3970 | > 5000 | > 5000 | 1290 | 1180 | 2480 | 812 | 710 | 387 | > 5000 | 318 |
| CC(C)C[C@H](NC(=O)[C@H](Cc1ccccc1)NC(=O)c1cnccn1)B(O)O [BORTEZOMIB] | 1.79 | > 20 | 6.88 | 3.74 | 11.9 | > 20 | > 20 | > 20 | > 20 | 3.6 | 0.473 | 0.538 | > 20 | 3.5 | > 20 | 1.56 |
| C[C@@H](Oc1cc(-c2cnn(C3CCNCC3)c2)cnc1N)c1c(Cl)ccc(F)c1Cl [CRIZOTINIB] | > 2000 | 683 | 92 | > 2000 | > 2000 | > 2000 | > 2000 | > 2000 | > 2000 | > 2000 | > 2000 | > 2000 | > 2000 | > 2000 | > 2000 |  |

From ChEMBL document CHEMBL1201861, “Genomics of Drug Sensitity in Cancer screening data, Wellcome Trust Sanger Institute”
